Test results published in patent publication US20240207427A1, “SELECTIVE DRUG RELEASE FROM INTERNALIZED CONJUGATES OF BIOLOGICALLY ACTIVE COMPOUNDS” (priority 2021, published 2024).
pIC50: −log10 of the molar value. Read-outs that look alike come from different tables or passages of the source.

Tests used:
Format in all cases: cell-based
[1] = test system: non-small-cell lung cancer cells (Calu1); assay: In vitro potency (CellTiter-Glo, 96 h), Calu1; conditions: Homo sapiens, Calu-1, 96 h
Method in brief: (§1)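 Authenticated lines (STR), used within 2 months of resuscitation, were seeded 24 h before treatment. Exposure to ADC dilutions lasted 96 h at 37 °C in RPMI 1640 with 20% FBS; viability was quantified luminescently.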

[2] = test system: B-lymphocyte cancer cells (SU-DHL4); assay: In vitro potency (CellTiter-Glo, 96 h), SU-DHL-4; conditions: Homo sapiens, SU-DHL-4, 96 h
Method in brief: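 Following a 24 h seeding period in 20% FBS-supplemented RPMI 1640, log-phase cells receive graded concentrations of conjugate. Incubation runs for 4 days at 37 °C, after which luminescence is recorded and IC50 calculated in ng/mL.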

[3] = test system: anaplastic large cell lymphoma cells (Karpas299); assay: In vitro potency (CellTiter-Glo, 96 h), Karpas299; conditions: Homo sapiens, KARPAS-299, 96 h
Method in brief: (§2)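 Log-phase cells were seeded for 24 h in RPMI 1640 with 20% FBS, then exposed to serially diluted antibody-drug conjugates or free camptothecin drug for 4 days at 37 °C. Growth inhibition was read by luminescence, and IC50 values were reported in ng/mL and nmol/L.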

[4] = test system: melanoma cells (A2058); assay: In vitro potency (CellTiter-Glo, 96 h), A2058; conditions: Homo sapiens, A2058, 96 h
Method in brief: as §1

[5] = test system: Ls174T cells; assay: In vitro potency (CellTiter-Glo, 96 h), Ls174T; conditions: Homo sapiens, LS174T
Method in brief: (§3)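 Medium: RPMI 1640 + 20% FBS. Pre-seeding: 24 h. Treatment: ADC or CPT free drug serial dilutions, 96 h, 37 °C. Read-out: luminescence; IC50 in ng/mL and nmol/L.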

[6] = test system: Hodgkin's lymphoma cells (L540cy); assay: In vitro potency (CellTiter-Glo, 96 h), L540cy
Method in brief: as §2

[7] = test system: acute myeloid leukemia cells (MOLM-13); assay: In vitro potency (CellTiter-Glo, 96 h), MOLM-13; conditions: Homo sapiens, MOLM-13, 96 h
Method in brief: as §3

[8] = test system: renal carcinoma cells (786-O); assay: In vitro potency (CellTiter-Glo, 96 h), 786-O; conditions: Homo sapiens, 786-0, 96 h
Method in brief: as §2

[9] = test system: breast cancer cells (MDA-MB-231); assay: In vitro potency (CellTiter-Glo, 96 h), MDA-MB-231; conditions: Homo sapiens, MDA-MB-231, 96 h
Method in brief: as §2

[10] = test system: anaplastic large cell lymphoma cells (DELBVR); assay: In vitro potency (CellTiter-Glo, 96 h), DELBVR
Method in brief: as §2

[11] = test system: pancreatic cancer cells (BxPC3); assay: In vitro potency (CellTiter-Glo, 96 h), BxPC3; conditions: Homo sapiens, BXPC-3, 96 h
Method in brief: as §3

[12] = test system: anaplastic large cell lymphoma cells (DEL); assay: In vitro potency (CellTiter-Glo, 96 h), DEL
Method in brief: as §2

[13] = read-out: SU-DHL-4 IC50, camptothecin free drug, 96 h
[14] = read-out: Karpas299 IC50, camptothecin free drug, 96 h
[15] = 96 h, read-out: Ls174T IC50, camptothecin free drug, 96 h
[16] = read-out: L540cy IC50, camptothecin free drug, 96 h
[17] = read-out: MOLM-13 IC50, camptothecin free drug, 96 h
[18] = read-out: 786-O IC50, camptothecin free drug, 96 h
[19] = read-out: MDAMB231 IC50, camptothecin free drug, 96 h
[20] = read-out: DELBVR IC50, camptothecin free drug, 96 h
[21] = read-out: BxPC3 IC50, camptothecin free drug, 96 h
[22] = read-out: DEL IC50, camptothecin free drug, 96 h
[23] = CPT free drugs, Table 24, CellTiter-Glo after 96 h exposure, read-out: IC50 (nmol/L) Calu1
[24] = CPT free drugs, Table 24, CellTiter-Glo after 96 h exposure, read-out: IC50 (nmol/L) SU-DHL-4
[25] = CPT free drugs, Table 24, CellTiter-Glo after 96 h exposure, read-out: IC50 (nmol/L) Karpas299
[26] = CPT free drugs, Table 24, CellTiter-Glo after 96 h exposure, read-out: IC50 (nmol/L) A2058
[27] = CPT free drugs, Table 24, CellTiter-Glo after 96 h exposure, read-out: IC50 (nmol/L) Ls174T
[28] = CPT free drugs, Table 24, CellTiter-Glo after 96 h exposure, read-out: IC50 (nmol/L) L540cy
[29] = CPT free drugs, Table 24, CellTiter-Glo after 96 h exposure, read-out: IC50 (nmol/L) MOLM-13
[30] = CPT free drugs, Table 24, CellTiter-Glo after 96 h exposure, read-out: IC50 (nmol/L) 786-O
[31] = CPT free drugs, Table 24, CellTiter-Glo after 96 h exposure, read-out: IC50 (nmol/L) MDAMB231
[32] = CPT free drugs, Table 24, CellTiter-Glo after 96 h exposure, read-out: IC50 (nmol/L) DELBVR
[33] = CPT free drugs, Table 24, CellTiter-Glo after 96 h exposure, read-out: IC50 (nmol/L) BxPC3
[34] = CPT free drugs, Table 24, CellTiter-Glo after 96 h exposure, read-out: IC50 (nmol/L) DEL
[35] = read-out: SU-DHL-4 IC50, Table 28, CPT free drugs, B-lymphocyte cancer cells SU-DHL4, 96 h, CellTiter-Glo
[36] = read-out: Karpas299 IC50, Table 28, CPT free drugs, anaplastic large cell lymphoma cells Karpas299, 96 h, CellTiter-Glo
[37] = 96 h, read-out: Ls174T IC50, Table 28, CPT free drugs, Ls174T cells, 96 h, CellTiter-Glo
[38] = read-out: L540cy IC50, Table 28, CPT free drugs, Hodgkin's lymphoma cells L540cy, CellTiter-Glo
[39] = read-out: MOLM-13 IC50, Table 28, CPT free drugs, acute myeloid leukemia cells MOLM-13, 96 h, CellTiter-Glo
[40] = read-out: 786-O IC50, Table 28, CPT free drugs, renal carcinoma cells 786-O, 96 h, CellTiter-Glo
[41] = read-out: MDAMB231 IC50, Table 28, CPT free drugs, breast cancer cells MDA-MB-231, 96 h, CellTiter-Glo
[42] = read-out: DELBVR IC50, Table 28, CPT free drugs, anaplastic large cell lymphoma cells DELBVR, CellTiter-Glo
[43] = read-out: BxPC3 IC50, Table 28, CPT free drugs, pancreatic cancer cells BxPC3, 96 h, CellTiter-Glo
[44] = read-out: DEL IC50, Table 28, CPT free drugs, anaplastic large cell lymphoma cells DEL, CellTiter-Glo

SMILES	pIC50 ([1]; read-out: Calu1 IC50)	pIC50 [2, 13]	pIC50 [3, 14]	pIC50 ([4]; read-out: A2058 IC50)	pIC50 [5, 15]	pIC50 [6, 16]	pIC50 [7, 17]	pIC50 [8, 18]	pIC50 [9, 19]	pIC50 [10, 20]	pIC50 [11, 21]	pIC50 [12, 22]	pIC50 [1, 23]	pIC50 [2, 24]	pIC50 [3, 25]	pIC50 [4, 26]	pIC50 [5, 27]	pIC50 [6, 28]	pIC50 [7, 29]	pIC50 [8, 30]	further results
CC[C@@]1(O)C(=O)OCc2c1cc1n(c2=O)Cc2c-1nc1cc3c(cc1c2CNCC(O)CO)OCO3 (stereo partly drawn) [Compound 7x]	< 6.00	7.39	7.27	7.74	< 6.00	7.49	6.24	7.06	6.28	7.70	7.10	7.80	–	–	–	–	–	–	–	–	–
CC[C@@]1(O)C(=O)OCc2c1cc1n(c2=O)Cc2c-1nc1cc(F)cc(F)c1c2CN [Compound 2ac]	–	–	–	–	–	–	–	–	–	–	–	–	7.17	8.40	8.10	8.52	8.15	8.40	7.77	8.05	pIC50 [9, 31]: 7.29; pIC50 [10, 32]: 8.52; pIC50 [11, 33]: 7.80; pIC50 [12, 34]: 8.70
CC[C@@]1(O)C(=O)OCc2c1cc1n(c2=O)Cc2c-1nc1cc3c(cc1c2CNCCS(N)(=O)=O)OCO3 [Compound 7d]	6.00	7.70	7.41	8.00	7.74	7.80	7.21	7.43	6.71	7.89	7.42	8.10	–	–	–	–	–	–	–	–	–
CC[C@@]1(O)C(=O)OCc2c1cc1n(c2=O)Cc2c-1nc1cc(Br)c(C)c(F)c1c2CN [Compound 2k]	–	–	–	–	–	–	–	–	–	–	–	–	7.09	8.40	7.85	8.40	7.92	8.40	7.24	8.30	pIC50 [9, 31]: 8.10; pIC50 [10, 32]: 8.48; pIC50 [11, 33]: 7.38; pIC50 [12, 34]: 8.46
CC[C@@]1(O)C(=O)OCc2c1cc1n(c2=O)Cc2c-1nc1cccc(F)c1c2CN [Compound 2p]	–	–	–	–	–	–	–	–	–	–	–	–	6.80	7.85	7.57	7.96	7.82	8.15	7.62	7.85	pIC50 [9, 31]: 7.72; pIC50 [10, 32]: 8.10; pIC50 [11, 33]: 7.21; pIC50 [12, 34]: 8.40
CC[C@@]1(O)C(=O)OCc2c1cc1n(c2=O)Cc2c-1nc1cc3c(cc1c2CNCC(O)CN1CCCCC1)OCO3 (stereo partly drawn) [Compound 7g]	6.31	7.74	7.54	8.10	7.74	7.85	7.25	7.48	6.94	7.85	7.54	8.10	–	–	–	–	–	–	–	–	–
CC[C@@]1(O)C(=O)OCc2c1cc1n(c2=O)Cc2c-1nc1cc(F)c(C)c(C=C(C)C)c1c2CN [Compound 6, (S)-11-(aminomethyl)-4-ethyl-8-fluoro-4-hydroxy-9-methyl-10-(2-methylprop-1-en-1-yl)-1,12-dihydro-14H-pyrano[3′,4′:6,7]indolizino[1,2-b]quinoline-3,14(4H)-dione]	7.77	–	–	8.30	–	–	–	–	–	–	–	–	–	–	–	–	–	–	–	–	pIC50 [2, 35]: 8.70; pIC50 [3, 36]: 8.40; pIC50 [5, 37]: 7.68; pIC50 [6, 38]: 8.40; pIC50 [7, 39]: 8.40; pIC50 [8, 40]: 8.30; pIC50 [9, 41]: 8.15; pIC50 [10, 42]: 8.52; pIC50 [11, 43]: 8.10; pIC50 [12, 44]: 9.00
CC[C@@]1(O)C(=O)OCc2c1cc1n(c2=O)Cc2c-1nc1cc3c(cc1c2CN)CCO3 [Compound 2n]	7.74	–	–	8.52	–	–	–	–	–	–	–	–	–	–	–	–	–	–	–	–	pIC50 ([1]; read-out: IC50 (nmol/L) Calu1): 7.68; pIC50 ([2]; read-out: IC50 (nmol/L) SU-DHL-4, CPT free drugs, Table 24, CellTiter-Glo after 96 h exposure): 9.00; pIC50 [2, 35]: 9.00; pIC50 ([3]; read-out: IC50 (nmol/L) Karpas299, CPT free drugs, Table 24, CellTiter-Glo after 96 h exposure): 9.00; pIC50 [3, 36]: 8.30; pIC50 ([5]; 96 h, read-out: IC50 (nmol/L) Ls174T, CPT free drugs, Table 24, CellTiter-Glo after 96 h exposure): 9.10; pIC50 [5, 37]: 8.40; pIC50 ([6]; read-out: IC50 (nmol/L) L540cy, CPT free drugs, Table 24, CellTiter-Glo after 96 h exposure): 9.00; pIC50 [6, 38]: 8.70; pIC50 ([7]; read-out: IC50 (nmol/L) MOLM-13, CPT free drugs, Table 24, CellTiter-Glo after 96 h exposure): 8.22; pIC50 [7, 39]: 7.54; pIC50 [8, 40]: 8.30; pIC50 ([8]; read-out: IC50 (nmol/L) 786-O, CPT free drugs, Table 24, CellTiter-Glo after 96 h exposure): 9.00; pIC50 ([9]; read-out: IC50 (nmol/L) MDAMB231, CPT free drugs, Table 24, CellTiter-Glo after 96 h exposure): 9.00; pIC50 [9, 41]: 8.10; pIC50 [10, 42]: 9.00; pIC50 [11, 43]: 8.52; pIC50 ([11]; read-out: IC50 (nmol/L) BxPC3, CPT free drugs, Table 24, CellTiter-Glo after 96 h exposure): 8.52; pIC50 [12, 44]: 9.00
